Test results from patent US20080234188A1, “Antimicrobial Peptides” (The Hospital for Sick Children, priority 2001, published 2008).
Values after ≈ are worked out from the molar mass of the structure shown. Like-named read-outs stand apart in the source and are kept apart here. Where a SMILES comes first, the peptide text is derived from it. Where no end group is shown, it is not given here.

How the values were obtained:
[1] = Hydrophobicity (hydropathy) from reverse-phase HPLC retention scale; assay type: physicochemical; set-up: key to Average Hydrophobicity of Core Sequence / Mean Core segment Hydrophobicity: arithmetic average of Table 1 hydropathy values of constituent residues; key to Hydropathy: hydropathy scale from HPLC retention times of model peptides (Table 1); conditions: for Mean residue hydropathy of X-residue peptide / Hydropathy: Table 1; for Hydropathy: of the X-residue, from HPLC retention of KKAAAXAAAAAXAAWAAXAAAKKKK-amide peptides; for Mean Core segment Hydrophobicity: Table 3
Source text: The “hydrophobicity value” of an amino acid residue means the hydrophobicity value of that residue as shown in Table 1 or as calculated by the method described herein.
The “hydrophobicity value” of an amino acid sequence or peptide means the arithmetic average of the individual hydrophobicity values of the constituent amino acid residues of the sequence.
Various hydrophobicity scales for proteins and amino acids have been described in the literature but the inventors have established the hydrophobicity scale of Table 1 based on the retention times on HPLC of a series of hydrophobic model peptides, as described in Liu and Deber (1998), Biopolymers (Peptide Science), v. 47, pp. 41-62).
The hydrophobicity value shown for each amino acid in Table 1 as “hydropathy” may be used as the hydrophobicity value for that amino acid in any peptide whose hydrophobicity value has to be calculated. The “average hydrophobicity” of a peptide containing amino acids shown in Table 1 is calculated by determining the arithmetic average of the Table 1 “hydropathy” values for the constituent amino acids of the sequence.
Peptides in accordance with the invention may also include other amino acids. For an amino acid not included in Table 1, the hydrophobicity value may be determined by the same method as described herein for obtaining the values of Table 1. For example, a peptide such as KKAAAXAAAAAXAAXAAXAAAKKKK-amide (Sequence ID No: 1) may be synthesized, where X is the amino acid whose hydrophobicity value is to be determined, and the retention time of the peptide on HPLC is determined, as described in the Examples. Similar peptides where X is Lys or Phe are also prepared and their HPLC retention times determined. The retention time, Rx, is converted to the hydropathy value H for the selected amino acid using the equation
H=(10×ΔtRx-Lys/ΔtRPhe-Lys)−5.00
where ΔtRx-Lys=retention time difference in minutes between Rx and the retention time of the most hydrophilic peptide tested (X=Lys) and where ΔtRPhe-Lys=retention time difference in minutes between the most hydrophobic peptide tested (X=Phe) and the most hydrophilic (X=Lys).
The retention time of each peptide was determined on a C4 reversed-phase column (4.6×250 mm, 300 A pore size, 10 μ particle size). Equal amounts of each peptide were injected into the column and eluted at a flow rate of 1 mL/min, utilizing a linear AB gradient (2% B/min), where buffer A was 0.1% TFA/ddH2O, and buffer B was 0.1% TFA/acetonitrile. The retention time of each peptide reported here was the average of triplicate measurements.

[2] = tested on: Staphylococcus epidermidis (C621); assay type: cell-based
Source text: (§1) The bacterial strains used were E. coli C498, E. coli C500, Escherichia coli UB1005 and its antibiotic supersusceptible derivative DC2 (22); a clinical isolate of Staphylococcus epidermidis (C621); coryneform bacterial strain Corynebacterium xerosis (C875); and E. coli ATCC 25922, Staphylococcus aureus ATCC 25923, Enterococcus faecalis ATCC 29212, Bacillus subtilis ATCC 6633 and Pseudomonas aeruginosa ATCC 27853, all from American Type Culture Collection.
(§2) Peptide antibacterial activity was assessed by the method of R. Hancock et al. (Wu & Hancock (1999), J. Biol. Chem., v. 274, pp. 29-35). Test strains of bacteria from Mueller Hinton agar (MHA) plates were inoculated into 5 ml Mueller Hinton Broth (MHB) in tubes and grown overnight at 37° C. on a shaker (180 rpm). Serial dilutions of test peptides (at 10 times the required test concentrations) were made in 0.01% acetic acid, 0.2% BSA, in polypropylene or coated glass tubes as follows: the test peptide was (a) dissolved in distilled water at 20 times the required maximum concentration (enough final volume for all tests to be performed on a given day); (b) diluted into an equal volume of 0.02% acetic acid, 0.4% BSA to give 10 times the required maximum concentration; (c) serial doubling dilutions were performed in 0.01% acetic acid, 0.2% BSA to provide serial dilutions of peptides at 10 times the required test concentrations, e.g., 640, 320, 160, . . . 2.5 μg/ml. (No deleterious effects of long-term storage of peptides in these media have been detected). Overnight bacterial cultures were diluted in MHB to give 2−7×10^5 colony forming units/ml. Bacterial suspension (100 μl) was dispensed in each well; controls without bacteria were maintained in parallel. To each well was added 11 μl of 10× test peptide and plates were incubated at 37° C. for 18-24 hours, and checked again at 40-48 hours. Plates were read visually and at 600 nm in a microplate reader (Molecular Devices).
(§3) were synthesized. The antibacterial activity of these peptides was determined against both Gram-positive bacteria ([…], Corynebacterium xerosis) and Gram-negative bacteria (various strains of E. coli). The results are shown in Table 2, along with the average hydrophobicity of each peptide, calculated as described herein.
(§4) A further number of the peptides of the invention were tested for antimicrobial activity against a range of Gram-positive and Gram-negative bacteria by the assay described immediately before Example 1.

[3] = tested on: Corynebacterium xerosis (C875); assay type: cell-based
Source text: as §1, §2, §3, §4

[4] = tested on: E. coli UB1005; assay type: cell-based, Escherichia coli
Source text: as §1, §2, §4

[5] = tested on: E. coli DC2; test: Assay of antibacterial activity (MIC), E. coli DC2; assay type: cell-based, Escherichia coli; conditions: Table 3; Gram-negative
Source text: as §1, §2, §4

Row | Compound | Mean residue hydropathy of X-residue peptide [1] | Hydropathy [1] | MIC S. epidermidis C621 ([2]; C621) [µM] | MIC C. xerosis C875 [3] [µM] | Mean Core segment Hydrophobicity [1] | MIC E. coli UB1005 ([4]; UB1005) [µM] | MIC E. coli DC2 [5] [µM] | MIC S. epidermidis C621 ([2]; Table 3, Gram-positive) [µM] | Antimicrobial activity, spectrum (in words) ([3]; Example 5, active on C. xerosis, not on the other bacteria tested) | MIC C. xerosis C875 ([3]; Table 3, Gram-positive) [µM] | MIC E. coli UB1005 ([4]; Table 3, Gram-negative) [µM]
1 | N=C(N)NCCC[C@H](N)C(=O)O [Arg] | −0.05 | −2.77 | – | – | – | – | – | – | – | – | –
2 | C[C@H](NC(=O)CNC(=O)[C@H](C)NC(=O)[C@H](C)NC(=O)[C@H](C)NC(=O)[C@H](CCCCN)NC(=O)[C@@H](N)CCCCN)C(=O)N[C@@H](C)C(=O)N[C@@H](C)C(=O)N[C@@H](C)C(=O)N[C@@H](C)C(=O)NCC(=O)N[C@@H](C)C(=O)N[C@@H](C)C(=O)N[C@@H](Cc1c[nH]c2ccccc12)C(=O)N[C@@H](C)C(=O)N[C@@H](C)C(=O)NCC(=O)N[C@@H](C)C(=O)N[C@@H](C)C(=O)N[C@@H](C)C(=O)N[C@@H](CCCCN)C(=O)N[C@@H](CCCCN)C(=O)N[C@@H](CCCCN)C(=O)N[C@@H](CCCCN)C(N)=O [G] (H-KKAAAGAAAAAGAAWAAGAAAKKKK-NH2; N-terminus assumed) | −0.13 | −3.31 | >64 | >64 | −0.13 | >64 | >64 | – | – | – | –
3 | C[C@H](NC(=O)[C@H](C)NC(=O)[C@H](C)NC(=O)[C@H](CC(N)=O)NC(=O)[C@H](C)NC(=O)[C@H](C)NC(=O)[C@H](C)NC(=O)[C@H](CCCCN)NC(=O)[C@@H](N)CCCCN)C(=O)N[C@@H](C)C(=O)N[C@@H](C)C(=O)N[C@@H](CC(N)=O)C(=O)N[C@@H](C)C(=O)N[C@@H](C)C(=O)N[C@@H](Cc1c[nH]c2ccccc12)C(=O)N[C@@H](C)C(=O)N[C@@H](C)C(=O)N[C@@H](CC(N)=O)C(=O)N[C@@H](C)C(=O)N[C@@H](C)C(=O)N[C@@H](C)C(=O)N[C@@H](CCCCN)C(=O)N[C@@H](CCCCN)C(=O)N[C@@H](CCCCN)C(=O)N[C@@H](CCCCN)C(N)=O [N] (H-KKAAANAAAAANAAWAANAAAKKKK-NH2; N-terminus assumed) | −0.16 | −3.79 | >64 | >64 | −0.21 | >64 | >64 | – | – | – | –
4 | C[C@H](NC(=O)[C@H](C)NC(=O)[C@H](C)NC(=O)[C@@H](NC(=O)[C@H](C)NC(=O)[C@H](C)NC(=O)[C@H](C)NC(=O)[C@H](CCCCN)NC(=O)[C@@H](N)CCCCN)[C@@H](C)O)C(=O)N[C@@H](C)C(=O)N[C@@H](C)C(=O)N[C@H](C(=O)N[C@@H](C)C(=O)N[C@@H](C)C(=O)N[C@@H](Cc1c[nH]c2ccccc12)C(=O)N[C@@H](C)C(=O)N[C@@H](C)C(=O)N[C@H](C(=O)N[C@@H](C)C(=O)N[C@@H](C)C(=O)N[C@@H](C)C(=O)N[C@@H](CCCCN)C(=O)N[C@@H](CCCCN)C(=O)N[C@@H](CCCCN)C(=O)N[C@@H](CCCCN)C(N)=O)[C@@H](C)O)[C@@H](C)O [T] (H-KKAAATAAAAATAAWAATAAAKKKK-NH2; N-terminus assumed) | 0.22 | −1.08 | >64 | >64 | 0.22 | >64 | >64 | – | – | – | –
5 | CC(C)[C@H](NC(=O)[C@H](C)NC(=O)[C@H](C)NC(=O)[C@H](C)NC(=O)[C@H](CCCCN)NC(=O)[C@@H](N)CCCCN)C(=O)N[C@@H](C)C(=O)N[C@@H](C)C(=O)N[C@@H](C)C(=O)N[C@@H](C)C(=O)N[C@@H](C)C(=O)N[C@H](C(=O)N[C@@H](C)C(=O)N[C@@H](C)C(=O)N[C@@H](Cc1c[nH]c2ccccc12)C(=O)N[C@@H](C)C(=O)N[C@@H](C)C(=O)N[C@H](C(=O)N[C@@H](C)C(=O)N[C@@H](C)C(=O)N[C@@H](C)C(=O)N[C@@H](CCCCN)C(=O)N[C@@H](CCCCN)C(=O)N[C@@H](CCCCN)C(=O)N[C@@H](CCCCN)C(N)=O)C(C)C)C(C)C [V] (H-KKAAAVAAAAAVAAWAAVAAAKKKK-NH2; N-terminus assumed) | 0.87 | 3.02 | – | – | 0.87 | – | >32 | >32 | activity against gram-positive C. xerosis only | 0.5 (≈ 1.17 µg/mL) | >32
6 | Asp: KKAAAXAAAAAXAAWAAXAAAKKKK-amide peptide with X-residue Asp (KKAAADAAAAADAAWAADAAAKKKK-NH2) | 0.00 | −2.49 | – | – | – | – | – | – | – | – | –
7 | Gln: KKAAAXAAAAAXAAWAAXAAAKKKK-amide peptide with X-residue Gln (KKAAAQAAAAAQAAWAAQAAAKKKK-NH2) | −0.04 | −2.75 | – | – | – | – | – | – | – | – | –
8 | Glu: KKAAAXAAAAAXAAWAAXAAAKKKK-amide peptide with X-residue Glu (KKAAAEAAAAAEAAWAAEAAAKKKK-NH2) | 0.16 | −1.49 | – | – | – | – | – | – | – | – | –
9 | His: KKAAAXAAAAAXAAWAAXAAAKKKK-amide peptide with X-residue His (X = His; C-terminal amide) | −0.34 | −4.63 | – | – | – | – | – | – | – | – | –
10 | K25: KKAAAXAAAAAXAAWAAXAAAKKKK-amide peptide with X = Lys, most hydrophilic peptide tested (KKAAAKAAAAAKAAWAAKAAAKKKK-NH2) [Peptide K25] | −0.40 | −5.00 | – | – | – | – | – | – | – | – | –
11 | Pro: KKAAAXAAAAAXAAWAAXAAAKKKK-amide peptide with X-residue Pro (KKAAAPAAAAAPAAWAAPAAAKKKK-NH2) | −0.39 | −4.92 | – | – | – | – | – | – | – | – | –
